Results as given in patent US7718647B2, “Substituted azepine derivatives as serotonin receptor modulators” (Athersys, Inc., priority 2004, dated 2010).

The molecules below were run against T1, human 5HT2c receptor (Homo sapiens, UniProt P28335, I156V/I160V, form not given) (assay: Calcium mobilization (FLIPR) 5HT2c receptor agonist assay in HEK 293 EBNA cells). Conditions: agonist-stimulated calcium release, HEK 293 EBNA cells expressing human 5HT2c receptor, read-out: 5-HT2c EC50 (hVSV).
T1 sequence (P28335 1-458 I156V/N158S/I160V): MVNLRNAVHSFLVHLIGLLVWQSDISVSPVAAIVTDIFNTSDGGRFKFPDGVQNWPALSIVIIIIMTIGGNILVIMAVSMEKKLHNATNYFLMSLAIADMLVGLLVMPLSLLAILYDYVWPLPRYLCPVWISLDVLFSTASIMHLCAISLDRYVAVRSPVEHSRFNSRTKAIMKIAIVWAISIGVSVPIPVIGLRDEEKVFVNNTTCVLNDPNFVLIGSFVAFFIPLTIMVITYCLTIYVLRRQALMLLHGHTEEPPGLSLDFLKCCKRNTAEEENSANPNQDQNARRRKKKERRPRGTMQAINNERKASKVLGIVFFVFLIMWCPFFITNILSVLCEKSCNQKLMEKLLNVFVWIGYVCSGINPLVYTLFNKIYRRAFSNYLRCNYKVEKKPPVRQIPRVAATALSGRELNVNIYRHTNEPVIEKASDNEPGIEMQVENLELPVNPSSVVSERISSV
Format: cell-based
CC1CNCCc2cc(Cl)sc21 (racemic) [Example 31, (R,S)-2-Chloro-8-methyl-5,6,7,8-tetrahydro-4H-thieno[2,3-d]azepine] showed an EC50 of under 100 nM. Work on COC1CNCCc2sc(Br)cc21 (racemic) [Example 33, (R,S)-2-Bromo-4-methoxy-5,6,7,8-tetrahydro-4H-thieno[2,3-d]azepine] yielded an EC50 of under 1000 nM. In the case of CCC1CNCCc2sc(Br)cc21 (racemic) [Example 35, (R,S)-2-Bromo-4-ethyl-5,6,7,8-tetrahydro-4H-thieno[2,3-d]azepine], the EC50 is reported as under 100 nM. For Cc1sc2c3c1CCC3CNCC2 (racemic) [Example 38, (R,S)-2-Methyl-4,4a,5,6,7,8-hexahydro-3H-1-thia-6-aza-cyclopenta[cd]azulene], the EC50 was under 1000 nM. CC1CNCCc2sc(Br)c(Br)c21 (single isomer, unassigned) [32, Enantiomer 1] was tested, and the EC50 was under 10000 nM. CC1CNCCc2sc(Br)c(Br)c21 (single isomer, unassigned) [32, Enantiomer 2] gave an EC50 of under 100 nM. For Cc1c(Br)sc2c1C(C)CNCC2 (single isomer, unassigned) [36, Enantiomer 1], the EC50 was over 10000 nM. In the case of Cc1c(Br)sc2c1C(C)CNCC2 (single isomer, unassigned) [36, Enantiomer 2], the EC50 is reported as under 1000 nM. With Brc1sc2c3c1CCC3CNCC2 (single isomer, unassigned) [37, Enantiomer 1] the EC50 was under 1000 nM. Brc1sc2c3c1CCC3CNCC2 (single isomer, unassigned) [37, Enantiomer 2] showed an EC50 of under 100 nM. With CC(C)(C)c1sc2c3c1CCC3CNCC2 (single isomer, unassigned) [39, Enantiomer 1] the EC50 was under 100 nM. Work on CC(C)(C)c1sc2c3c1CCC3CNCC2 (single isomer, unassigned) [39, Enantiomer 2] yielded an EC50 of under 10 nM. Brc1cc2c(s1)CCNCC2 [Example 1, 2-Bromo-5,6,7,8-tetrahydro-4H-thieno[2,3-d]azepine] showed an EC50 of under 10 nM. In the case of Clc1cc2c(s1)CCNCC2 [Example 2, 2-Chloro-5,6,7,8-tetrahydro-4H-thieno[2,3-d]azepine], the EC50 is reported as under 100 nM. In the case of Brc1sc2c(c1Br)CCNCC2 [Example 3, 2,3-Dibromo-5,6,7,8-tetrahydro-4H-thieno[2,3-d]azepine], the EC50 is reported as under 10 nM. For Clc1sc2c(c1Cl)CCNCC2 [Example 4, 2,3-Dichloro-5,6,7,8-tetrahydro-4H-thieno[2,3-d]azepine], the EC50 was under 10 nM. Clc1c(Br)sc2c1CCNCC2 [Example 5, 2-Bromo-3-chloro-5,6,7,8-tetrahydro-4H-thieno[2,3-d]azepine] gave an EC50 of under 10 nM. In the case of FC(F)(F)Oc1ccc(-c2cc3c(s2)CCNCC3)cc1 [Example 6, 2-(4-Trifluoromethoxy-phenyl)-5,6,7,8-tetrahydro-4H-thieno[2,3-d]azepine], the EC50 is reported as over 10000 nM. Work on FC(F)(F)c1ccccc1-c1cc2c(s1)CCNCC2 [Example 7, 2-(2-Trifluoromethyl-phenyl)-5,6,7,8-tetrahydro-4H-thieno[2,3-d]azepine] yielded an EC50 of over 10000 nM. Fc1ccc(-c2cc3c(s2)CCNCC3)cc1 [Example 8, 2-(4-Fluoro-phenyl)-5,6,7,8-tetrahydro-4H-thieno[2,3-d]azepine] gave an EC50 of under 10000 nM. Fc1ccc(-c2cc3c(s2)CCNCC3)cc1Cl [Example 9, 2-(3-Chloro-4-fluoro-phenyl)-5,6,7,8-tetrahydro-4H-thieno[2,3-d]azepine] showed an EC50 of over 10000 nM. In the case of Clc1ccc(Cl)c(-c2cc3c(s2)CCNCC3)c1 [Example 10, 2-(2,5-Dichloro-phenyl)-5,6,7,8-tetrahydro-4H-thieno[2,3-d]azepine], the EC50 is reported as over 10000 nM. For CCc1ccc(-c2cc3c(s2)CCNCC3)cc1 [Example 11, 2-(4-Ethyl-phenyl)-5,6,7,8-tetrahydro-4H-thieno[2,3-d]azepine], the EC50 was over 10000 nM. For COc1cccc(-c2cc3c(s2)CCNCC3)c1 [Example 12, 2-(3-Methoxy-phenyl)-5,6,7,8-tetrahydro-4H-thieno[2,3-d]azepine], the EC50 was under 10000 nM. c1ccc(-c2cc3c(s2)CCNCC3)cc1 [Example 13, 2-Phenyl-5,6,7,8-tetrahydro-4H-thieno[2,3-d]azepine] showed an EC50 of under 10000 nM. Fc1cccc(Cl)c1Cc1cc2c(s1)CCNCC2 [Example 14, 2-(2-Chloro-6-fluoro-benzyl)-5,6,7,8-tetrahydro-4H-thieno[2,3-d]azepine] was tested, and the EC50 was under 1000 nM. With Fc1cccc(Cl)c1Cc1sc2c(c1Br)CCNCC2 [Example 15, 3-Bromo-2-(2-chloro-6-fluoro-benzyl)-5,6,7,8-tetrahydro-4H-thieno [2,3-d]azepine] the EC50 was under 10000 nM. Cc1c(Br)sc2c1CCNCC2 [Example 16, 2-Bromo-3-methyl-5,6,7,8-tetrahydro-4H-thieno[2,3-d]azepine] showed an EC50 of under 10 nM. Work on COc1c(C)sc2c1CCNCC2 [Example 17, 3-Methoxy-2-methyl-5,6,7,8-tetrahydro-4H-thieno[2,3-d]azepine] yielded an EC50 of under 10 nM. In the case of COc1c(Br)sc2c1CCNCC2 [Example 18, 2-Bromo-3-methoxy-5,6,7,8-tetrahydro-4H-thieno[2,3-d]azepine], the EC50 is reported as under 10 nM. With COc1c(Cl)sc2c1CCNCC2 [Example 19, 2-Chloro-3-methoxy-5,6,7,8-tetrahydro-4H-thieno[2,3-d]azepine] the EC50 was under 1000 nM. In the case of C=C(C)c1sc2c(c1OC)CCNCC2 [Example 20, 2-Isopropenyl-3-methoxy-5,6,7,8-tetrahydro-4H-thieno[2,3-d]azepine], the EC50 is reported as under 10 nM. Cc1c(C(C)(C)C)sc2c1CCNCC2 [Example 21, 2-tert-Butyl-3-methyl-5,6,7,8-tetrahydro-4H-thieno[2,3-d]azepine] gave an EC50 of under 100 nM. With COc1c(C(C)C)sc2c1CCNCC2 [Example 22, 2-Isopropyl-3-methoxy-5,6,7,8-tetrahydro-4H-thieno[2,3-d]azepine] the EC50 was under 10 nM. For Brc1cc2c(s1)C1(CC1)CNCC2 [Example 25, 2-Bromo-8-spirocyclopropyl-5,6,7,8-tetrahydro-4H-thieno[2,3-d]azepine], the EC50 was under 1000 nM. Work on O=S(=O)(c1cc2c(s1)CCNCC2)N1CCCC1 [Example 26, 2-(Pyrrolidine-1-sulfonyl)-5,6,7,8-tetrahydro-4H-thieno[2,3-d]azepine] yielded an EC50 of under 10 nM. CN(C)S(=O)(=O)c1cc2c(s1)CCNCC2 [Example 27, 5,6,7,8-Tetrahydro-4H-thieno[2,3-d]azepine-2-sulfonic acid dimethylamide] was tested, and the EC50 was under 10 nM. Cc1c(S(=O)(=O)N(C)C)sc2c1CCNCC2 [Example 28, 3-Methyl-5,6,7,8-tetrahydro-4H-thieno[2,3-d]azepine-2-sulfonic acid dimethylamide] was tested, and the EC50 was under 10 nM. O=C(NC1CCCC1)c1cc2c(s1)CCNCC2 [Example 29, 5,6,7,8-Tetrahydro-4H-thieno[2,3-d]azepine-2-carboxylic acid cyclopentylamide] was tested, and the EC50 was under 10000 nM. In the case of CN(C)C(=O)c1cc2c(s1)CCNCC2 [Example 30, 5,6,7,8-Tetrahydro-4H-thieno[2,3-d]azepine-2-carboxylic acid dimethylamide], the EC50 is reported as under 1000 nM. CC1(C)CNCCc2cc(Br)sc21 [Example 34, 2-Bromo-8,8-dimethyl-5,6,7,8-tetrahydro-4H-thieno[2,3-d]azepine] gave an EC50 of under 10000 nM. For FC(F)(F)c1cc2c(s1)CCNCC2 [Example 40, 2-Trifluoromethyl-5,6,7,8-tetrahydro-4H-thieno[2,3-d]azepine], the EC50 was under 10 nM. FC(F)(F)c1sc2c(c1Cl)CCNCC2 [Example 41, 3-Chloro-2-trifluoromethyl-5,6,7,8-tetrahydro-4H-thieno[2,3-d]azepine] showed an EC50 of under 100 nM. FC(F)(F)c1sc2c(c1Br)CCNCC2 [Example 42, 3-Bromo-2-trifluoromethyl-5,6,7,8-tetrahydro-4H-thieno[2,3-d]azepine] showed an EC50 of under 10 nM. With Cc1csc2c1CCNCC2 [Example 43, 3-Methyl-5,6,7,8-tetrahydro-4H-thieno[2,3-d]azepine] the EC50 was under 1000 nM. Molecule COc1c(C(C)(C)C)sc2c1CCNCC2 [Example 44, 2-tert-Butyl-3-methoxy-5,6,7,8-tetrahydro-4H-thieno[2,3-d]azepine] has an EC50 of under 10 nM. For CC(C)(C)c1cc2c(s1)CCNCC2 [Example 45, 2-tert-Butyl-5,6,7,8-tetrahydro-4H-thieno[2,3-d]azepine], the EC50 was under 100 nM. Work on CC(C)(C)c1sc2c(c1Cl)CCNCC2 [Example 46, 2-tert-Butyl-3-chloro-5,6,7,8-tetrahydro-4H-thieno[2,3-d]azepine] yielded an EC50 of under 100 nM. For CC(C)(C)CC(C)(C)c1sc2c(c1Cl)CCNCC2 [Example 47, 3-Chloro-2-(1,1,3,3-tetramethyl-butyl)-5,6,7,8-tetrahydro-4H-thieno[2,3-d]azepine], the EC50 was under 10000 nM. With Clc1csc2c1CCNCC2 [Example 48, 3-Chloro-5,6,7,8-tetrahydro-4H-thieno[2,3-d]azepine] the EC50 was under 10000 nM. Brc1cc2c(o1)CCNCC2 [Example 49, 2-Bromo-5,6,7,8-tetrahydro-4H-furo[2,3-d]azepine] showed an EC50 of under 1000 nM.
